From US12162888B2, “Carboxamides as ubiquitin-specific protease inhibitors” (Valo Early Discovery, Inc., priority 2018, dated 2024)

What was measured:
[1] = biological target: T1, USP28 (USP28-5(1-1077)-TEV-6*His; LifeSensors) (Homo sapiens, UniProt Q96RU2); test: Ubiquitin-Rhodamine 110 Assay for USP28 Activity, Example A-1(b); format: biochemical
T1 construct: construct USP28 (USP28-5(1-1077)-TEV-6*His; LifeSensors); TEV cleavage site (C); 6xHis (C); purchased LifeSensors
T1 sequence (Q96RU2 1-1077): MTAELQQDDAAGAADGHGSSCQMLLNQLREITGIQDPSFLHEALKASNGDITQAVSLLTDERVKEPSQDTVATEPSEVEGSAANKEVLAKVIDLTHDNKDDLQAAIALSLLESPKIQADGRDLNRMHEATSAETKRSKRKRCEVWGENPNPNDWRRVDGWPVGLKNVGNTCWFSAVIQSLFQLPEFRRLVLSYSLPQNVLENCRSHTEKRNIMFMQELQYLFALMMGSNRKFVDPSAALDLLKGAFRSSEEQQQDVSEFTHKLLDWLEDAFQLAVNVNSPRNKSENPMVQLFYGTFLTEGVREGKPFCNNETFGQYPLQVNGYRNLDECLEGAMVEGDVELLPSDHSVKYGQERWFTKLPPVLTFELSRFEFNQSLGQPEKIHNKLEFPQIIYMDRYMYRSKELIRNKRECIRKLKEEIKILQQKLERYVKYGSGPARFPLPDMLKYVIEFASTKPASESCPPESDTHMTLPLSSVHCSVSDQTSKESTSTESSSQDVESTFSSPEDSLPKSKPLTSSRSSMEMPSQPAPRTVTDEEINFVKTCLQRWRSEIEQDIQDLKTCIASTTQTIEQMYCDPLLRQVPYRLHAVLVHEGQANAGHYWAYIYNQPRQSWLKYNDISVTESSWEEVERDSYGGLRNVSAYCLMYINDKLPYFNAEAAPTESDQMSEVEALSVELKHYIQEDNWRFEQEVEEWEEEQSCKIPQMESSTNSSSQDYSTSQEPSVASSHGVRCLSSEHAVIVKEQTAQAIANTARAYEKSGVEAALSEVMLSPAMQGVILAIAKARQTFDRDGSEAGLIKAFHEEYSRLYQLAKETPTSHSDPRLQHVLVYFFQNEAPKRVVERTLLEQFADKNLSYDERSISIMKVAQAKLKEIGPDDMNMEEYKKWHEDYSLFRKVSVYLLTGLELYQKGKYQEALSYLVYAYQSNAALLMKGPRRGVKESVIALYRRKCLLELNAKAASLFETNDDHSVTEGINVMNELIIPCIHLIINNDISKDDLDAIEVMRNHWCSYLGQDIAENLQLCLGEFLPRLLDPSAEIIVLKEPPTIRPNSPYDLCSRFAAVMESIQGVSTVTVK
Protocol: Example A-1(b): Biochemical Assay: Ubiquitin-Rhodamine 110 Assay for USP28 Activity
Each assay was performed in a final volume of 20 μL in assay buffer containing 20 mM Tris-HCl (pH 8.0, (1M Tris-HCl, pH 8.0 solution; Corning 46-031-CM)), 2 mM CaCl2 (1M Calcium Chloride solution; Sigma #21114) 2 mM BME (2-Mercaptoethanol; Sigma 63689-25ML-F), 0.01% Prionex (0.22 μM filtered, Sigma #G-0411), and 0.01% Triton X-100. Stock compound solutions were stored at −20° C. as 10 mM in DMSO. Up to 1 month prior to the assay, 2 mM test compounds were pre-dispensed into assay plates (Black, low volume; Corning #3820) and frozen at −20° C. Prestamped assay plates were allowed to come to room temperature on the day of the assay. For the screen, 100 nL of 2 mM was pre-dispensed for a final screening concentration of 10 μM (DMSO(fc)=0.5%). […] Plates were incubated stacked for 90 minutes at room temperature before fluorescence was read on the Envision (Excitation at 485 nm and Emission at 535 nm; Perkin Elmer) or on the PheraSTAR (Excitation at 485 nm and Emission at 535 nm; BMG Labtech).
For follow-up studies, each assay was performed in a final volume of 15 μL in assay buffer containing 20 mM Tris-HCl (pH 8.0, (1M Tris-HCl, pH 8.0 solution; Corning 46-031-CM)), 3 mM BME (2-Mercaptoethanol; Sigma 63689-25ML-F), 0.03% BGG (0.22 μM filtered, Sigma, G7516-25G), and 0.01% Triton X-100 (Sigma, T9284-10L). Nanoliter quantities of either an 8-point or 10-point, 3-fold serial dilution in DMSO was pre-dispensed into assay plates (Perkin Elmer, ProxiPlate-384 F Plus, #) for a final test concentration of either 25 μM to 11 nM or 25 μM to 1.3 nM, respectively. Enzyme USP28, construct USP28 (USP28-5(1-1077)-TEV-6*His; LifeSensors) concentration and incubation times were optimized for the maximal signal-to-background while maintaining initial velocity conditions at a fixed substrate concentration. The final concentration of the enzyme in the assay was […]. Final substrate (Ub-Rh110; Ubiquitin-Rhodamine 110, R&D Systems #U-555) concentration was 25 nM with [Ub-Rh110]<<Km. 5 μL of 2× enzyme was added to assay plates (pre-stamped with compound) preincubated with USP28 for 30 minutes and then 5 μL of 2× Ub-Rh110 was added to assay plates. Plates were incubated stacked for 20 minutes at room temperature before 5 μL of stop solution was added (final concentration of 10 mM citric acid (Sigma, 251275-500G)). Fluorescence was read on the Envision (Excitation at 485 nm and Emission at 535 nm; Perkin Elmer) or on the PheraSTAR (Excitation at 485 nm and Emission at 535 nm; BMG Labtech).
For assay formats Example A-1(a), A-1(b), and A-2, data were reported as percent inhibition compared with control wells based on the following equation: % inh=1−((FLU−AveLow)/(AveHigh−AveLow)) where FLU=measured Fluorescence, AveLow=average Fluorescence of no enzyme control (n=16), and AveHighh=average Fluorescence of DMSO control (n=16). IC50 values were determined by curve fitting of the standard 4 parameter logistic fitting algorithm included in the Activity Base software package: IDBS XE Designer Model 205. Data is fitted using the Levenburg Marquardt algorithm.

[2] = biological target: T2, USP28 (His-tagged USP28-FL-mammalian) (Homo sapiens, UniProt Q96RU2); test: Ubiquitin-Rhodamine 110 Assay for USP28 Activity, Example A-1(a); format: biochemical; settings: Ubiquitin-Rhodamine 110 biochemical assay, read-out: USP28 A-1(a) IC50 range
T2 construct: Expression of USP28 (1-1077)-TEV-6*His (pTT5 vector) was carried out in Expi293f cells; made in house; host or cells: Expi293F cells (pTT5 vector)
T2 sequence (Q96RU2 1-1077): T1 sequence (Q96RU2 1-1077)
In short: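 IC50s were fitted with a 4-parameter logistic to percent inhibition relative to no-enzyme and DMSO controls, using Rhodamine 110 fluorescence (485/535 nm) released from 25 nM Ub-Rh110. The enzyme was Expi293F-expressed USP28-FL-His at […], preincubated 30 min with compound (10-point, 25 μM top) in Tris pH 8.0 buffer containing BGG and Triton X-100. Substrate turnover ran 45 min at room temperature and was stopped with 10 mM citric acid.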

[3] = Ubiquitin-Rhodamine 110 Assay for USP25 Activity, Example A-3; format: biochemical; settings: Ubiquitin-Rhodamine 110 biochemical assay, Example A-1(b); read-out: USP28 A-1(b) IC50 range
In short: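 USP25-His6 ([…] final as stated) preincubated 30 min with compound (10-point, 25 μM to 1.3 nM), then Ub-Rh110 at 25 nM (<<Km) added in pH 8.0 Tris buffer with BME, BGG and Triton X-100. Reaction stopped after 45 min at room temperature with 10 mM citric acid; fluorescence read at 485/535 nm.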

[4] = system: human eosinophil EOL-1 (DSMZ no. ACC 386) cells; test: In Vivo Xenograft Studies, Example A-2; settings: EOL-1 cells subcutaneous in flank of mice; first test compound 50-120 mg/kg orally or subcutaneously, second test compound 40 or 60 mg/kg orally twice per day; versus vehicle (FIG. 2)
Protocol: Example A-2: In Vivo Xenograft Studies
Mice were injected subcutaneously in the flank with human eosinophil EOL-1 (DSMZ no. ACC 386) cells (NCI). Injections with cells (circles, FIG. 2A) and with vehicle alone (triangles, FIG. 2B) were monitored, and when tumors reached a critical size (for example, about 1000 mm^3), mice were randomized into treatment groups, including vehicle control and reference standard groups. The groups, as shown in FIG. 2B are as follows: Group 1, vehicle administered orally every other day; Group 2, first test compound ((S)-amino-N-(5-fluoro-7-(piperazin-1-yl)chroman-3-yl)-6-methylthieno[2,3-b]pyridine-2-carboxamide) at 120 mg/kg, administered orally every other day; Group 3, first test compound at 80 mg/kg, administered orally every other day; Group 4, first test compound at 80 mg/kg, administered subcutaneously twice per day, every other day thereafter; Group 5, first test compound at 60 mg/kg, administered subcutaneously twice per day for four consecutive days, with no administration for three days. […] The mice were weighed and tumors measured using vernier calipers on indicated days. Tumor volume was calculated according to the formula (length×width^2)/2.

For `CCn1ccc2cc(C(=O)N[C@@H]3CCc4cc(N5CC6CCC(C5)N6)ccc4C3)nnc21` (single isomer, unassigned) [Example 11-23], the “USP28 A-1(b) IC50 range” value [1] was “+ (“+”L>2 μM)”.
In the case of `CCn1ccc2cc(C(=O)N[C@H]3CCc4cc(N5CC6CCC(C5)N6)ccc4C3)nnc21` (single isomer, unassigned) [Example 11-24], the “USP28 A-1(b) IC50 range” value [1] is reported as “+ (“+”L>2 μM)”.
For `Cc1ccc2c(N)c(C(=O)N[C@H]3COc4cc(N5C[C@@H]6CNC[C@H]6C5)ccc4C3)sc2n1` [Example 43, 3-amino-N-((R)-7-((3aR,6aR)-hexahydropyrrolo[3,4-c]pyrrol-2(1H)-yi)chroman-3-yl)-6-methylthieno[2,3-b]pyridine-2-carboxamide], the “USP28 A-1(b) IC50 range” value [1] was “+ (“+”L>2 μM)”.
With `CCN[C@H]1CN(c2ccc3c(n2)CC[C@H](NC(=O)c2sc4nc(C)ccc4c2N)C3)C[C@@H]1COC` [Example 476, 3-amino-N-[(6S)-2-[(3R,4S)-3-(ethylamino)-4-(methoxymethyl)pyrrolidin-1-yl]-5,6,7,8-tetrahydroquinolin-6-yl]-6-methylthieno[2,3-b]pyridine-2-carboxamide] the IC50 [2] was 0.05 to 0.2 µM and the IC50 [3] was over 2 µM.
For `CCN[C@@H]1CN(c2ccc3c(n2)CC[C@H](NC(=O)c2sc4nc(C)ccc4c2N)C3)C[C@H]1COC` [Example 477, 3-amino-N-[(6S)-2-[(3S,4R)-3-(ethylamino)-4-(methoxymethyl)pyrrolidin-1-yl]-5,6,7,8-tetrahydroquinolin-6-yl]-6-methylthieno[2,3-b]pyridine-2-carboxamide], the IC50 [2] was 0.05 to 0.2 µM and the IC50 [3] was over 2 µM.
Work on `Cc1ccc2c(N)c(C(=O)N[C@H]3CCc4nc(N5CC[C@@H](N)[C@@H]5C(F)F)ccc4C3)sc2n1` [Example 478, 3-amino-N-[(6S)-2-[(2R,3R)-3-amino-2-(difluoromethyl)pyrrolidin-1-yl]-5,6,7,8-tetrahydroquinolin-6-yl]-6-methylthieno[2,3-b]pyridine-2-carboxamide] yielded an IC50 [2] of 0.05 to 0.2 µM and an IC50 [3] of over 2 µM.
For `Cc1ccc2c(N)c(C(=O)N[C@H]3CCc4nc(N5CC[C@H](N)[C@H]5C(F)F)ccc4C3)sc2n1` [Example 479, 3-amino-N-[(6S)-2-[(2S,3S)-3-amino-2-(difluoromethyl)pyrrolidin-1-yl]-5,6,7,8-tetrahydroquinolin-6-yl]-6-methylthieno[2,3-b]pyridine-2-carboxamide], the IC50 [2] was 0.001 to 0.05 µM and the IC50 [3] was 0.05 to 0.2 µM.
`Cc1nc2sc(C(=O)N[C@H]3CCc4nc(N5C[C@@H](CF)[C@H](N)C5)ccc4C3)c(N)c2cc1F` [Example 507, 3-amino-N-[(6S)-2-[(3S,4R)-3-amino-4-(fluoromethyl)pyrrolidin-1-yl]-5,6,7,8-tetrahydroquinolin-6-yl]-5-fluoro-6-methylthieno[2,3-b]pyridine-2-carboxamide] gave an IC50 [2] of 0.05 to 0.2 µM and an IC50 [3] of 0.2 to 2 µM.
For `Cc1ccc2c(N)c(C(=O)N[C@@H]3COc4cc(N5CCNCC5)cc(F)c4C3)sc2n1` [first test compound, (S)-amino-N-(5-fluoro-7-(piperazin-1-yl)chroman-3-yl)-6-methylthieno[2,3-b]pyridine-2-carboxamide], the “tumor growth (tumor volume, (length×width^2)/2)” value [4] was “slowing of tumor growth over time”.
In the case of `CO[C@H]1CN(c2ccc3c(n2)CC[C@H](NC(=O)c2sc4nc(C)cnc4c2N)C3)C[C@@H]1N` [second test compound, 7-amino-N-[(6S)-2-[(3S,4S)-3-amino-4-methoxypyrrolidin-1-yl]-5,6,7,8-tetrahydroquinolin-6-yl]-3-methylthieno[2,3-b]pyrazine-6-carboxamide], the “tumor growth (tumor volume, (length×width^2)/2)” value [4] is reported as “slowing of tumor growth over time”.
